Measurements reported in patent publication US20230085307A1, “PYRIDAZINONE COMPOUND AND HERBICIDE” (NISSAN CHEMICAL CORPORATION, priority 2019, published 2023).

Assays:
green foxtail = test: Test Example 4: herbicidal effect by soil treatment (Table 19, symbol G); type: in vivo, green foxtail (Setaria viridis)
Procedure, shortened: (§1)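 Seeds were sown in sterilized diluvial soil and covered with about 1.5 cm of soil. An emulsion formulation diluted with water to a predetermined herbicide amount was sprayed evenly onto the soil surface. Plants grew in a greenhouse at 25° C. to 30° C., and the effect was scored three weeks after application using criteria from an earlier test.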

southern crabgrass [1] = test: Test Example 5: herbicidal effect by foliage application, plastic box (Table 20, symbol F); type: in vivo, southern crabgrass (Digitaria ciliaris); details: foliage application, 320 g/ha; for effect on southern crabgrass (F): 3 weeks after application
Procedure, shortened: (§2)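 Plants sown in sterilized diluvial soil and grown 14 days in a greenhouse at 25° C to 30° C, then sprayed on the foliage with the compound's emulsion diluted in water to a predetermined herbicide amount. Injury to weeds and crops scored three weeks after application on a visual rating scale.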

southern crabgrass [2] = test: Test Example 4: herbicidal effect by soil treatment (Table 19, symbol F); type: in vivo, southern crabgrass (Digitaria ciliaris)
Procedure, shortened: as §1

Italian ryegrass [3] = test: Test Example 5: herbicidal effect by foliage application, plastic box (Table 20, symbol K); type: in vivo, Italian ryegrass (Lolium multiflorum); details: foliage application, 320 g/ha; for effect on Italian ryegrass (K): 3 weeks after application
Procedure, shortened: as §2

persian speedwell [4] = test: Test Example 5: herbicidal effect by foliage application, plastic box (Table 20, symbol R); type: in vivo, Persian speedwell (Veronica persica); details: foliage application, 320 g/ha; for effect on persian speedwell (R): 3 weeks after application
Procedure, shortened: as §2

Japanese bulrush = test: Test Example 2: herbicidal activity, application during weed generation under submerged conditions (Table 17, symbol B); type: in vivo, Japanese bulrush (Schoenoplectus juncoides); details: AAH 320 g/ha; application during weed generation, submerged conditions
Procedure, shortened: (§3)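 Mixed weed seedlings in alluvial soil under a 4 cm water layer, greenhouse-grown at 25–30° C. Compound given as a diluted emulsion into the floodwater at the 1–2 leaf stage; response graded after three weeks.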

late watergrass = test: Test Example 1: herbicidal activity, application before weed generation under submerged conditions (Table 16, symbol A); type: in vivo, late watergrass (Echinochloa oryzicola); details: 320 g/ha applied herbicide
Procedure, shortened: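 Submerged Wagner pots (alluvial soil, 4 cm water) sown with weed seeds and planted with 2.5-leaf rice seedlings; emulsifiable concentrate diluted in water applied to water surface on sowing day. Held in greenhouse at 25-30 °C; injury scored 0-5 by herbicidal rate after three weeks.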

oval-leafed pondweed = test: Test Example 2: herbicidal activity, application during weed generation under submerged conditions (Table 17, symbol C); type: in vivo, oval-leafed pondweed (Monochoria vaginalis); details: AAH 320 g/ha; application during weed generation, submerged conditions
Procedure, shortened: as §3

redroot pigweed [5] = test: Test Example 5: herbicidal effect by foliage application, plastic box (Table 20, symbol N); type: in vivo, redroot pigweed (Amaranthus retroflexus); details: foliage application, 320 g/ha, three weeks after application
Procedure, shortened: as §2

redroot pigweed [6] = test: Test Example 4: herbicidal effect by soil treatment (Table 19, symbol N); type: in vivo, redroot pigweed (Amaranthus retroflexus)
Procedure, shortened: as §1

persian speedwell [7] = test: Test Example 4: herbicidal effect by soil treatment (Table 19, symbol R); type: in vivo, Persian speedwell (Veronica persica)
Procedure, shortened: as §1

lambsquarters = test: Test Example 5: herbicidal effect by foliage application, plastic box (Table 20, symbol O); type: in vivo, lambsquarters (Chenopodium album); details: foliage application, 320 g/ha; for effect on lambsquarters (O): 3 weeks after application
Procedure, shortened: as §2

chickweed = test: Test Example 4: herbicidal effect by soil treatment (Table 19, symbol P); type: in vivo, common chickweed (Stellaria media)
Procedure, shortened: as §1

Italian ryegrass [8] = test: Test Example 4: herbicidal effect by soil treatment (Table 19, symbol K); type: in vivo, Italian ryegrass (Lolium multiflorum)
Procedure, shortened: as §1

blackgrass = test: Test Example 4: herbicidal effect by soil treatment (Table 19, symbol J); type: in vivo, blackgrass (Alopecurus myosuroides)
Procedure, shortened: as §1

barnyard grass = test: Test Example 5: herbicidal effect by foliage application, plastic box (Table 20, symbol H); type: in vivo, barnyard grass (Echinochloa crus-galli); details: foliage application, 320 g/ha; for effect on barnyard grass (H): 3 weeks after application
Procedure, shortened: as §2

[9] = amount of applied herbicide 320 g/ha

Structure (SMILES)	herbicidal effect rating, B: Japanese bulrush (Japanese bulrush)	Herbicidal effect on A: late watergrass (grade 0-5) (late watergrass)	herbicidal effect rating, C: oval-leafed pondweed (oval-leafed pondweed)	herbicidal effect rating, G: green foxtail (green foxtail; 320 g/ha)	effect on southern crabgrass (F) (southern crabgrass [1])	herbicidal effect rating, F: southern crabgrass (southern crabgrass [2]; 320 g/ha)	effect on Italian ryegrass (K) (Italian ryegrass [3])	effect on persian speedwell (R) (persian speedwell [4])	herbicidal effect rating, N: redroot pigweed (redroot pigweed [6]; 320 g/ha)	herbicidal effect rating, R: persian speedwell (persian speedwell [7]; 320 g/ha)	effect on lambsquarters (O) (lambsquarters)	herbicidal effect rating, P: chickweed (chickweed; 320 g/ha)	herbicidal effect rating, K: Italian ryegrass (Italian ryegrass [8]; 320 g/ha)	herbicidal effect rating, J: blackgrass (blackgrass; 320 g/ha)	effect on barnyard grass (H) (barnyard grass)	also measured
CCCC(=O)Oc1c(C)nn(C)c(=O)c1-c1c(-c2ccc(OCC)cc2)sc2ccccc12 [1-014]	3 (Herbicidal rate of 40% or more and less than 70%)	5 (Herbicidal rate of 90% or more (almost completely withered))	3 (Herbicidal rate of 40% or more and less than 70%)													herbicidal effect rating, G: green foxtail (green foxtail; [9]): 1 (Herbicidal rate of 5% or more and less than 20%); herbicidal effect grade, F: southern crabgrass (southern crabgrass [1]; three weeks after application): 0 (Herbicidal rate of 5% or less (almost no effect)); herbicidal effect rating, F: southern crabgrass (southern crabgrass [2]; [9]): 0 (Herbicidal rate of 5% or less (almost no effect)); herbicidal effect grade, K: Italian ryegrass (Italian ryegrass [3]; three weeks after application): 3 (Herbicidal rate of 40% or more and less than 70%); herbicidal effect grade, R: persian speedwell (persian speedwell [4]; three weeks after application): 5 (Herbicidal rate of 90% or more (almost completely withered)); herbicidal effect grade, N: redroot pigweed (redroot pigweed [5]): 0 (Herbicidal rate of 5% or less (almost no effect)); herbicidal effect rating, N: redroot pigweed (redroot pigweed [6]; [9]): 0 (Herbicidal rate of 5% or less (almost no effect)); herbicidal effect rating, R: persian speedwell (persian speedwell [7]; [9]): 5 (Herbicidal rate of 90% or more (almost completely withered)); herbicidal effect grade, O: lambsquarters (lambsquarters; three weeks after application): 2 (Herbicidal rate of 20% or more and less than 40%); herbicidal effect rating, P: chickweed (chickweed; [9]): 4 (Herbicidal rate of 70% or more and less than 90%); herbicidal effect rating, K: Italian ryegrass (Italian ryegrass [8]; [9]): 0 (Herbicidal rate of 5% or less (almost no effect)); herbicidal effect rating, J: blackgrass (blackgrass; [9]): 0 (Herbicidal rate of 5% or less (almost no effect)); herbicidal effect grade, H: barnyard grass (barnyard grass; three weeks after application): 4 (Herbicidal rate of 70% or more and less than 90%)
Cc1nn(C)c(=O)c(-c2c(-c3ccc(OC(C)C)cc3)sc3ccc(F)cc23)c1O [2-034]	3 (Herbicidal rate of 40% or more and less than 70%)	3 (Herbicidal rate of 40% or more and less than 70%)	3 (Herbicidal rate of 40% or more and less than 70%)	4 (Herbicidal rate of 70% or more and less than 90%)	5 (Herbicidal rate of 90% or more (almost completely withered))	5 (Herbicidal rate of 90% or more (almost completely withered))	5 (Herbicidal rate of 90% or more (almost completely withered))	5 (Herbicidal rate of 90% or more (almost completely withered))	5 (Herbicidal rate of 90% or more (almost completely withered))	4 (Herbicidal rate of 70% or more and less than 90%)	5 (Herbicidal rate of 90% or more (almost completely withered))	4 (Herbicidal rate of 70% or more and less than 90%)	1 (Herbicidal rate of 5% or more and less than 20%)	1 (Herbicidal rate of 5% or more and less than 20%)	5 (Herbicidal rate of 90% or more (almost completely withered))	
CCCCOc1ccc(-c2sc3ccc(F)cc3c2-c2c(O)c(C)nn(C)c2=O)cc1 [2-036]	3 (Herbicidal rate of 40% or more and less than 70%)	3 (Herbicidal rate of 40% or more and less than 70%)	3 (Herbicidal rate of 40% or more and less than 70%)	0 (Herbicidal rate of 5% or less (almost no effect))	4 (Herbicidal rate of 70% or more and less than 90%)	2 (Herbicidal rate of 20% or more and less than 40%)	3 (Herbicidal rate of 40% or more and less than 70%)	5 (Herbicidal rate of 90% or more (almost completely withered))	5 (Herbicidal rate of 90% or more (almost completely withered))	4 (Herbicidal rate of 70% or more and less than 90%)	5 (Herbicidal rate of 90% or more (almost completely withered))	3 (Herbicidal rate of 40% or more and less than 70%)	0 (Herbicidal rate of 5% or less (almost no effect))	0 (Herbicidal rate of 5% or less (almost no effect))	5 (Herbicidal rate of 90% or more (almost completely withered))	
CCCC(=O)Oc1c(C)nn(C)c(=O)c1-c1c(-c2ccc(OC(F)(F)F)cc2)sc2ccc(F)cc12 [2-046]	3 (Herbicidal rate of 40% or more and less than 70%)	4 (Herbicidal rate of 70% or more and less than 90%)	0 (Herbicidal rate of 5% or less (almost no effect))	4 (Herbicidal rate of 70% or more and less than 90%)	0 (Herbicidal rate of 5% or less (almost no effect))	2 (Herbicidal rate of 20% or more and less than 40%)	4 (Herbicidal rate of 70% or more and less than 90%)	5 (Herbicidal rate of 90% or more (almost completely withered))	4 (Herbicidal rate of 70% or more and less than 90%)	5 (Herbicidal rate of 90% or more (almost completely withered))	5 (Herbicidal rate of 90% or more (almost completely withered))	5 (Herbicidal rate of 90% or more (almost completely withered))	3 (Herbicidal rate of 40% or more and less than 70%)	0 (Herbicidal rate of 5% or less (almost no effect))	5 (Herbicidal rate of 90% or more (almost completely withered))	
Cc1nn(C)c(=O)c(-c2c(-c3ccc(OCCF)cc3)sc3ccc(F)cc23)c1O [2-047]	3 (Herbicidal rate of 40% or more and less than 70%)	3 (Herbicidal rate of 40% or more and less than 70%)	2 (Herbicidal rate of 20% or more and less than 40%)	5 (Herbicidal rate of 90% or more (almost completely withered))	5 (Herbicidal rate of 90% or more (almost completely withered))	5 (Herbicidal rate of 90% or more (almost completely withered))	4 (Herbicidal rate of 70% or more and less than 90%)	5 (Herbicidal rate of 90% or more (almost completely withered))	5 (Herbicidal rate of 90% or more (almost completely withered))	5 (Herbicidal rate of 90% or more (almost completely withered))	4 (Herbicidal rate of 70% or more and less than 90%)	4 (Herbicidal rate of 70% or more and less than 90%)	1 (Herbicidal rate of 5% or more and less than 20%)	0 (Herbicidal rate of 5% or less (almost no effect))	5 (Herbicidal rate of 90% or more (almost completely withered))	
